Data from patent US20100234306A1, “USE OF A PEPTIDE AS A THERAPEUTIC AGENT” (priority 2007, published 2010).
Where no end group is shown, it is not given here.

Legend:
HIV-1IIIB = assay: HIV-1 antiviral CPE assay in CEM-SS cells (MTS); settings: 6 days post-infection, peptide 10 micrograms per ml
CEM-SS cells = assay: Cytotoxicity (MTS cell viability) in the HIV-1 assay; settings: MTS, peptide 10 micrograms per ml
[1] = Cytotoxicity testing in MRC-5 cells (CellTiter 96); format: cell-based; settings: human, MRC-5 cells (embryonal lung fibroblasts), 6 days incubation, read-out: % Cell viability
Method: For cytotxicity testing, MRC-5 cells were seeded at 2,500 cells/well in 96 well plates using growth medium. […] The following day, peptide was added and tested in duplicates. After a 6 days incubation period, cell viability was measured using CellTiter 96 Solution (Promega). Plates were incubated for additional 4 hours at 37° C.

Pseudomonas aeruginosa = Pseudomonas aeruginosa growth inhibition assay; format: cell-based; settings: Mueller-Hinton Broth, read visually, peptide 10 micrograms per ml
Streptococcus pneumoniae = Streptococcus pneumoniae growth inhibition assay; format: cell-based; settings: Mueller-Hinton Broth, read visually, peptide 10 micrograms per ml
MRSA = settings: Mueller-Hinton Broth, read visually, peptide 10 micrograms per ml
in vitro = settings: human
[2] = Cytotoxicity (MTS cell viability) in the HIV-1 assay; settings: human, CEM-SS cells

With `Cc1cn([C@H]2C[C@H](N=[N+]=[N-])[C@@H](CO)O2)c(=O)[nH]c1=O` [AZT] as the molecule, how does the “% CPE reduction in HIV-1 infected CEM-SS cells” value (HIV-1IIIB) read?
The value was 99%.

And the “% Cell viability” value (CEM-SS cells)?
Its value is 97%.

With `CC(C)(C)NC(=O)[C@@H]1CN(Cc2cccnc2)CCN1C[C@@H](O)C[C@@H](Cc1ccccc1)C(=O)N[C@H]1c2ccccc2C[C@H]1O` [Indinavir] as the molecule, how does the “% Cell viability” value (CEM-SS cells) read?
Its value is 93%.

With MQMKKVLDS-OH [AIP-1] as the molecule, how does the viability at 144 h [1] read?
Its viability at 144 h is 100%.

And the “% inhibition” value (Pseudomonas aeruginosa)?
Its value is 0.0%.

And the “% inhibition” value (Streptococcus pneumoniae)?
Its value is 0.0%.

What about the “% inhibition” value (MRSA) of the same molecule?
Its value is 0.0%.

What about the viability at 144 h, 10 micrograms per ml (in vitro) of the same molecule?
Its viability at 144 h, 10 micrograms per ml is 100%.

What about the viability at 10 micrograms per ml [2] of the same molecule?
Its viability at 10 micrograms per ml is 100%.
